The text below walks through data of BindingDB's records for patent US20250333410 (Xizang Haisco Pharmaceutical, 2025).

Structures are written as SMILES.

Sequence of Potassium voltage-gated channel subfamily H member 2 (Q12809 whole entry): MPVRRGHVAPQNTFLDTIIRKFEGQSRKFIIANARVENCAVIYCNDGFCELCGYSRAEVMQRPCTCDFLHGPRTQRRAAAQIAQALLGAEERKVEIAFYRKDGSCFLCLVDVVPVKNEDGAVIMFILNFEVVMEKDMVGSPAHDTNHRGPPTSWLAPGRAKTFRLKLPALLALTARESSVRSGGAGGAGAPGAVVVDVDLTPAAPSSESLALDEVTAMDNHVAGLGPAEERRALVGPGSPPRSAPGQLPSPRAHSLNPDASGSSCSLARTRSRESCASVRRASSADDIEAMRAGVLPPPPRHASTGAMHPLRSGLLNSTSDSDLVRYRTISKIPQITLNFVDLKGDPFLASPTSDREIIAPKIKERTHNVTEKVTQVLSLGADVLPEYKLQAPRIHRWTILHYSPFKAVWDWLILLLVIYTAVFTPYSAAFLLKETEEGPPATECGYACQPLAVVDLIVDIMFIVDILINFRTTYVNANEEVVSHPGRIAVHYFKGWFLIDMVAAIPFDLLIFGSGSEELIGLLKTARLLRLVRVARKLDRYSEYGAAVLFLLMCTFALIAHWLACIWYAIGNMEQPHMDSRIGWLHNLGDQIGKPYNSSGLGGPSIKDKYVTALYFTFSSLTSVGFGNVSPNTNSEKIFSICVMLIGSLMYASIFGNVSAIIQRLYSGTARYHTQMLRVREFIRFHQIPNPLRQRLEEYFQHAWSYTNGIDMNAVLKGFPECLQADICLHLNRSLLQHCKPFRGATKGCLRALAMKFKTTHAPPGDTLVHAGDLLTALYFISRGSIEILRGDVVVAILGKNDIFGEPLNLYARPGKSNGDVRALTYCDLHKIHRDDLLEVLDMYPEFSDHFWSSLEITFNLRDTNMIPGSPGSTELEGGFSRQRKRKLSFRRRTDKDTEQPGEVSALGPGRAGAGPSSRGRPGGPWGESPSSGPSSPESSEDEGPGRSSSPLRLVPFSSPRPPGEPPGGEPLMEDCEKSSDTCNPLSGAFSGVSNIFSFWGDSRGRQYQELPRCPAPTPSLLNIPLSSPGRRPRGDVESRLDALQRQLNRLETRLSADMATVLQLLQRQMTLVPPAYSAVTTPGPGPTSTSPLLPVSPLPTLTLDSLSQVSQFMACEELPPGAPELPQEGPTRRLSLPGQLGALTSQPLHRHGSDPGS

This series deals with Potassium voltage-gated channel subfamily H member 2 (Homo sapiens, UniProt Q12809). As to the kind of experiment: Test for hERG Potassium Ion Channel. The source says:
Experimental method: in CHO (Chinese Hamster Ovary) cells stably expressing hERG potassium channel, the whole cell patch-clamp technique was used to record hERG potassium channel current at room temperature. The glass microelectrode was made of a glass electrode blank (BF150-86-10, Sutter) by a puller. The tip resistance after filling the liquid in the electrode was about 2-5 MΩ. The glass microelectrode can be connected to the patch-clamp amplifier by inserting the glass microelectrode into an amplifier probe. The clamping voltage and data recording were controlled and recorded by the pClamp 10 software through a computer. The sampling frequency was 10 kHz, and the filtering frequency was 2 kHz. After the whole cell records were obtained, the cells were clamped at −80 mV, and the step voltage that induced the hERG potassium current (IhERG) was depolarized from −80 mV to +20 mV for 2 s, then repolarized to −50 mV, and returned to −80 mV after 1 s. This voltage stimulation was given every 10 s, and the administration process was started after the hERG potassium current was confirmed to be stable (at least 1 minute). The compound was administered for at least 1 minute at each test concentration, and at least 2 cells (n≥2) were tested at each concentration.
By IC50 is commonly meant the concentration that inhibits the measured activity by half. With `CNC(=O)COc1cc2cc(Nc3nc(N4CCC(CN5CCC(C6CCN(c7cccc8c(C9CCC(=O)NC9=O)nn(C)c78)CC6)CC5)CC4)ncc3Cl)ccc2n(C)c1=O` (stereo unspecified) [US20250333410, Compound 8], the IC50 is above 40 µM.
Consider `CNC(=O)COc1cc2cc(Nc3nc(N4CCC(CN5CCC(c6cccc7c6n(C)c(=O)n7C6CCC(=O)NC6=O)CC5)CC4)ncc3Cl)ccc2n(C)c1=O` (stereo unspecified) [US20250333410, Compound 35], for which the IC50 was above 30 µM.
With `CNC(=O)COc1cc2cc(Nc3nc(N4CCN(CC5CCN(c6ccc7c8c(oc7c6)C(=O)N(C6CCC(=O)NC6=O)C8)CC5)CC4)ncc3Cl)ccc2n(C)c1=O` (stereo unspecified) [US20250333410, Compound 46] the figure was above 30 µM; with `CNC(=O)COc1cc2cc(Nc3nc(N4CCN(CC5CC6(CCN(c7scc8c7C(=O)N(C7CCC(=O)NC7=O)C8=O)CC6)C5)CC4)ncc3Cl)ccc2n(C)c1=O` (stereo unspecified) [US20250333410, Compound 67], above 40 µM; with `CNC(=O)COc1cc2cc(Nc3nc(N4CCC(N5CCN(c6ccc(NC7CCC(=O)NC7=O)cc6F)CC5)C(F)(F)C4)ncc3Cl)ccc2n(C)c1=O` (stereo unspecified) [US20250333410, Compound 71], above 40 µM.
With `CNC(=O)COc1cc2cc(Nc3nc(N4CC[C@@H](N5CCN(c6ccc(N[C@@H]7CCC(=O)NC7=O)cc6F)CC5)C(F)(F)C4)ncc3Cl)ccc2n(C)c1=O` [US20250333410, Compound 72] the figure was above 40 µM.
In turn, `CNC(=O)COc1cc2cc(Nc3nc(N4CC[C@H](N5CCN(c6ccc(N[C@@H]7CCC(=O)NC7=O)cc6F)CC5)C(F)(F)C4)ncc3Cl)ccc2n(C)c1=O` [US20250333410, Compound 73] displayed an IC50 above 40 µM.
For `CC(=O)COc1cc2cc(Nc3nc(N4CC[C@@H](N5CCN(c6ccc(N[C@H]7CCC(=O)NC7=O)cc6F)CC5)C(F)(F)C4)ncc3Cl)ccc2n(C)c1=O` [US20250333410, Compound 75] the value was above 40 µM; for `CC(=O)COc1cc2cc(Nc3nc(N4CCC(N5CCN(c6c(F)cc(C7CCC(=O)NC7=O)cc6F)CC5)C(F)(F)C4)ncc3Cl)ccc2n(C)c1=O` (stereo unspecified) [US20250333410, Compound 76], above 40 µM; for `CNC(=O)COc1cc2cc(Nc3nc(N4CCC(N5CCN(c6cccc7c6n(C)c(=O)n7C6CCC(=O)NC6=O)CC5)C(F)(F)C4)ncc3Cl)ccc2n(C)c1=O` (stereo unspecified) [US20250333410, Compound 77], above 40 µM.
With `CCC(=O)COc1cc2cc(Nc3nc(N4CCC(N5CCN(c6cccc7c(C8CCC(=O)NC8=O)nn(C)c67)CC5)C(F)(F)C4)ncc3Cl)ccc2n(C)c1=O` (stereo unspecified) [US20250333410, Compound 78] the figure was above 40 µM.
